One test has as its system WecA. The settings on record: cited from earlier work.
In test [1] the target is WecA enzyme (P-60 from E. coli B21WecA) (Escherichia coli, UniProt P0AC78). As to the kind of experiment: biochemical. The format is biochemical.
In a further test the target is M. smegmatis WecA (P-60) (Mycolicibacterium smegmatis, UniProt A0R211). Put plainly: Kinetic parameter evaluation via WecA activity assay. The format is biochemical. To be noted: for Vmax for C50-P-P-Glucosamine-C6-FITC synthesis: crude membrane P-60, Michaelis-Menten plot.
For another test, the target named is T1, M. smegmatis WecA (Mycolicibacterium smegmatis, UniProt A0R211).
T1 sequence (A0R211 1-406): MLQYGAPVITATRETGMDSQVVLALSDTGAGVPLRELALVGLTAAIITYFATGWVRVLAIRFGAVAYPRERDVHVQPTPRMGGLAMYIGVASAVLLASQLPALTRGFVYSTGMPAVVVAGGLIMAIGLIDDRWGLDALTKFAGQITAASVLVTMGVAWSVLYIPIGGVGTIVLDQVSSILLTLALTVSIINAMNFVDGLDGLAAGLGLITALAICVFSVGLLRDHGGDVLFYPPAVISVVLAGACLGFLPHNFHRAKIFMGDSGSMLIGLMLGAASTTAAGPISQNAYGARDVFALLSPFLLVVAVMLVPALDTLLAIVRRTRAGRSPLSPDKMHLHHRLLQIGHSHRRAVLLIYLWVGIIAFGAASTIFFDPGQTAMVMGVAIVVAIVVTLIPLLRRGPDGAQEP
The format is biochemical.

Another test concerns M. tuberculosis. As to the kind of experiment: MIC determination against replicating Mtb. The format is cell-based, Mycobacterium tuberculosis (H37Rv). The settings on record: aerobic.
The test system of test [2] is intracellular Mtb CDC1551-tdTomato in J774A.1 cells. Put plainly: Killing effect against intracellular M. tuberculosis in J774A.1 macrophages. It counts as cell-based.
Test [3] has as its system non-replicating Mtb H37Rv (pFCA-luxAB). The format is cell-based, M. tuberculosis H37Rv. The settings on record: for MICLORA/MICMABA: ratio of LORA MIC to MABA MIC. (In general: Resazurin is reduced to fluorescent resorufin, in cell work by metabolically active cells.)
The subject of a further test is non-replicating Mtb. Put plainly: Wayne model under low-oxygen conditions. The format is cell-based.
Another test has as its target T2, MurX (Mycolicibacterium smegmatis, UniProt A0R019).
T2 sequence (A0R019 1-359): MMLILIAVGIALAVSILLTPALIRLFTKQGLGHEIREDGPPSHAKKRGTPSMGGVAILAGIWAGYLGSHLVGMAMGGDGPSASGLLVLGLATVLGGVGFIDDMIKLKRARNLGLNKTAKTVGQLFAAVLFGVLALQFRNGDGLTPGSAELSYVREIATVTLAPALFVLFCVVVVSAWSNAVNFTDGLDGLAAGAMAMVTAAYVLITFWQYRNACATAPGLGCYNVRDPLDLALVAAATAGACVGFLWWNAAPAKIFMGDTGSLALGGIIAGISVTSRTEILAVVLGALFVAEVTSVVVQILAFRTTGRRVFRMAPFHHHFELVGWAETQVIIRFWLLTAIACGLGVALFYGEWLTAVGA
To be noted: cited from earlier work.

≈ marks a conversion by molar mass, not a printed value. Entries after “also recorded” stand apart in the source; their conditions may differ. Where two headings read alike, the source gives them in different places. Some results are limits rather than exact numbers.

We go through 9 compounds from PMC5012913 (Analytical biochemistry, 2016).

As for `CCCCc1ccc(NC(=O)C2=CCN(C)[C@@H]([C@H](O[C@@H]3O[C@H](CN)[C@@H](O)[C@H]3O)[C@H]3O[C@@H](n4ccc(=O)[nH]c4=O)[C@H](O)[C@@H]3O)C(=O)N2C)cc1` [CPZEN-45], in the test on WecA, the “WecA inhibition” value is reported as “inhibit WecA at low concentrations”.
The term inhibition denotes the share of the control response that was lost under treatment. In the case of `CO[C@H]1[C@@H](O)[C@H](n2ccc(=O)[nH]c2=O)O[C@@H]1[C@@H](O[C@H]1OC(C(=O)N[C@H]2CCCCNC2=O)=C[C@H](O)[C@@H]1O)C(N)=O` [Capuramycin (6), Capuramycin], the “WecA enzyme inhibitory activity” value in test [1] (at 20 µg/mL) was “no WecA enzyme inhibitory activity”. For the same compound, in test [1] (read-out: WecA inhibition (%)), the inhibition at 0.02 µg/mL is 0%, the inhibition at 2 µg/mL worked out at 0% and the inhibition at 20 µg/mL was determined as 0%.
Regarding `CCCCCCCCCC(=O)O[C@@H]1[C@H](OC)[C@@H]([C@@H](O[C@H]2OC(C(=O)N[C@H]3CCC[C@@H](C)NC3=O)=C[C@H](O)[C@@H]2O)C(N)=O)O[C@H]1n1ccc(=O)[nH]c1=O` [SQ641 (8)], the “WecA enzyme inhibitory activity” value in [1] is reported as “no WecA enzyme inhibitory activity”.
For orientation: Km means the concentration of substrate that gives half-maximal velocity. With `CC(=O)N[C@H]1[C@@H](OP(=O)(O)OP(=O)(O)OC[C@H]2O[C@@H](n3ccc(=O)[nH]c3=O)[C@H](O)[C@@H]2O)O[C@H](CO)[C@@H](O)[C@@H]1O` [UDP-GlcNAc], the Km at M. smegmatis WecA (P-60) (140 µM exogenous decaprenyl phosphate (C50-P)) worked out at 110 µM.
For `COC1C(C(OC2OC(C(=O)NC3CCCCNC3=O)=CC(O)C2O)C(N)=O)OC(n2ccc(=O)[nH]c2=O)C1OC` (centres unmarked) [UT-01320 (12)], the “IC50 against M. smegmatis wecA” value against M. smegmatis WecA came out at 0.0507 µg/mL (≈ 0.0869 µM). Moreover, the “MIC (MABA), replicating Mtb” value against M. tuberculosis was determined as 1.5 µg/mL (≈ 2.57 µM). In addition, in test [1], the “WecA enzyme inhibitory activity” value was “inhibited completely” and the “WecA inhibition (%) obtained via HPLC” value is reported as 100 (100) %. Further, the “Bactericidal effect against intracellular Mtb (words, comparison with TB drugs)” value in [2] (2x and 4x MIC, up to 72h, J774A.1, listed as 12) was “equal to those of capreomycin; also recorded: faster killing effect than rifampicin”. For the same compound, the “Time to kill Mtb in infected macrophages” value in test [2] (x2 MICLORA, […]) is recorded as at most 72 h. The “MIC (LORA), non-replicating Mtb” value in test [3] (low-oxygen conditions) was found to be 2.58 µg/mL (≈ 4.42 µM). Further, the MICLORA/MICMABA in [3] is reported as 1.72. Moreover, the “Effectiveness in non-replicating Mtb (Wayne model)” value with non-replicating Mtb is given as “confirmed”. Moreover, the “MurX enzyme inhibitory activity” value at MurX (even at 400 µg/mL, as previously reported) is “did not exhibit MurX enzyme inhibitory activity”.
For `CO[C@H]1/C=C/O[C@@]2(C)Oc3c(C)c(O)c4c(O)c(c(/C=N/N5CCN(C)CC5)c(O)c4c3C2=O)NC(=O)/C(C)=C\C=C\[C@H](C)[C@H](O)[C@@H](C)[C@@H](O)[C@@H](C)[C@H](OC(C)=O)[C@@H]1C` [rifampicin, reference compound], the MICLORA/MICMABA in test [3] stood at 7.35.
Take “Decaprenyl-P-P-Glucosamine-C6-FITC [C50-P-P-Glucosamine-C6-FITC (3)]”: the “Vmax for C50-P-P-Glucosamine-C6-FITC synthesis” value is recorded as 0.404 µM/min on M. smegmatis WecA (P-60) and 0.4041 µM/min at M. smegmatis WecA (P-60) (listed as C50-P-P-Glucosamine-C6-FITC).
Consider “Tunicamycin [Tunicamycin (5), reference compound]”, for which the “IC50 against M. smegmatis wecA” value at M. smegmatis WecA (UV-Vis dose-response curve) is recorded as 0.59 µg/mL. Moreover, the “IC50 against MurX” value at MurX is recorded as 2.31 µg/mL.
For “UDP-Glucosamine-C6-FITC [UDP-Glucosamine-C6-FITC (1)]”, the Km on M. smegmatis WecA (P-60) (with undecaprenyl phosphate) was determined as 196 µM.
